Several values for one entry are separate records, joined by “and”; a condition that tells them apart may be missing. Equal values may be shown once.
System: Clostridium acetobutylicum strain ATCC 824
Test: Sequential batch transfer in 24-well culture plates (butanol, residual glucose, butanol yield and productivity)
Format: cell-based
Conditions: for Butanol: Experiment 1; for Residual glucose concentration: initial glucose 60 g/L
Procedure: Each well contained 1.5 mL of growth medium. Peptide was added to each well at the indicated concentration (0, 25, 50, and 100 nM). Every 24 hours fresh medium and peptide treatment were added to a new column of wells then 1.5 μL of the previous day culture was transferred to the new well. Wells were harvested for glucose and butanol analysis after 96 hours of growth. Transfers 1, 4, 7, 10, 13, 16, […].
Briefly, Clostridium spores were germinated in a suitable growth medium for 18-24 hours then […] was transferred to 1.5 mL of fresh medium in each of four wells on a 24-well culture plate. Three of the wells had been treated with 25 nM, 50 nM and 100 nM of peptide, respectively while the fourth well was untreated. Thereafter, every 24 hours […] of each subculture was transferred to 1.5 mL of fresh medium that contained the same peptide treatment or no treatment. Transfers of successive subcultures were done for 24 days, and each subculture was grown for 96 hours before being harvested. Culture supernatants were recovered following centrifugation and were analyzed for butanol and residual glucose concentrations. Determination of optimum peptide treatment levels was based on a graphical comparison of the concentration of butanol in each of the four culture wells for sequential transfers 1, 4, 7, 10, 13, 16, 19, 22 and 24.
Clostridium acetobutylicum strain ATCC 824 was used in all experiments and the growth medium used for sequential batch transfer, time course, and continuous culture experiments contained yeast extract, casamino acids, L-cysteine, L-asparagine, phosphate buffer, trace minerals, and 6% glucose. What are believed to be quorum-sensing peptides that were used in the experiments were chemically synthesized peptides SEQ ID NO: 143 (amino acid sequence: SYPGWSW) and SEQ ID NO: 144 (amino acid sequence: ILILISG). Routine growth of the bacteria as well as the sequential batch and time course experiments were conducted in a Form a Scientific Model 1029 anaerobic gas chamber at 32° C. Continuous cultures were performed at 32° C. using duplicate New Brunswick Scientific BioFlo 3000 apparati with a dilution rate of 0.01 volume per hour, 75 rpm agitation, and nitrogen gas sparging. Optical density of culture samples was measured at 600 nm in a Beckman DU 600 series spectrophotometer and glucose was analyzed using a YSI Model 2700 Select Biochemistry Analyzer with internal glucose calibration. Butanol concentrations were determined by measuring experimental and standard samples using a Varian Saturn 3 Gas Chromatograph/Mass Spectrometer and calculating butanol concentrations using standard curves.
(§1) Sequential batch transfer experiments were carried out in 24-well culture plates that contained 1.5 mL of medium per well. Peptide was added to each well at the indicated concentrations of 0 nM (control), 25 nM, 50 nM, or 100 nM. Every 24 hours, fresh medium and peptide treatments were added to a new column of wells. Then, 1.5 uL of the previous day culture was transferred to the new well. Wells were harvested for glucose and butanol analysis after 96 hours of growth; transfers 1, 4, 7, 10, 13, 16, 19, 22, and 24 were analyzed. Two representative experiments are shown in Tables 30 and 31 and FIGS. 14 and 15.
as §1, with “32” for “30”, “33” for “31”, “16” for “14”, “17.” for “15.”

[1] = 50 nM, transfer 10, first experiment, after 96 hours of culture
[2] = 50 nM, transfer 13, first experiment, after 96 hours of culture
[3] = 50 nM, transfer 16, first experiment, after 96 hours of culture
[4] = 50 nM, transfer 19, first experiment, after 96 hours of culture
[5] = 50 nM, transfer 22, first experiment, after 96 hours of culture
[6] = 50 nM, transfer 24, first experiment, after 96 hours of culture
[7] = 100 nM peptide, transfer 1, after 96 hours of culture, Expt. 2 (repeat)
[8] = 100 nM peptide, transfer 4, after 96 hours of culture, Expt. 2 (repeat)
[9] = 100 nM peptide, transfer 7, after 96 hours of culture, Expt. 2 (repeat)
[10] = 100 nM peptide, transfer 10, after 96 hours of culture, Expt. 2 (repeat)
[11] = 100 nM peptide, transfer 13, after 96 hours of culture, Expt. 2 (repeat)
[12] = 100 nM peptide, transfer 16, after 96 hours of culture, Expt. 2 (repeat)
[13] = 100 nM peptide, transfer 19, after 96 hours of culture, Expt. 2 (repeat)
[14] = 100 nM peptide, transfer 22, after 96 hours of culture, Expt. 2 (repeat)
[15] = 100 nM peptide, transfer 24, after 96 hours of culture, Expt. 2 (repeat)
[16] = 100 nM, transfer 1, first experiment, after 96 hours of culture
[17] = 100 nM, transfer 4, first experiment, after 96 hours of culture
[18] = 100 nM, transfer 7, first experiment, after 96 hours of culture
[19] = 100 nM, transfer 10, first experiment, after 96 hours of culture
[20] = 100 nM, transfer 13, first experiment, after 96 hours of culture
[21] = 100 nM, transfer 16, first experiment, after 96 hours of culture
[22] = 100 nM, transfer 19, first experiment, after 96 hours of culture
[23] = 100 nM, transfer 22, first experiment, after 96 hours of culture
[24] = 100 nM, transfer 24, first experiment, after 96 hours of culture
[25] = BP110517 first experiment, 25 nM, transfers 19, 22 and 24
[26] = BP110517 first experiment, 50 nM, transfer 10

Substance: SYPGWSW [peptide SEQ ID NO: 143]
- Butanol (50 nM, transfer 10, after 96 hours of culture, listed as BP110517): 13.7 g/L and 13.66 g/L
- Butanol productivity [1]: 0.14 g butanol/L-h
- Butanol yield [1]: 0.23 g butanol/g/glucose
- Residual glucose concentration [1]: 0.1 g/L
- Butanol (50 nM, transfer 13, after 96 hours of culture): 10.28 g/L
- Butanol productivity [2]: 0.11 g butanol/L-h
- Butanol yield [2]: 0.17 g butanol/g/glucose
- Residual glucose concentration [2]: 0.1 g/L
- Butanol (50 nM, transfer 16, after 96 hours of culture): 10.95 g/L
- Butanol productivity [3]: 0.11 g butanol/L-h
- Butanol yield [3]: 0.18 g butanol/g/glucose
- Residual glucose concentration [3]: 0.1 g/L
- Butanol (50 nM, transfer 19, after 96 hours of culture): 3.96 g/L
- Butanol productivity [4]: 0.04 g butanol/L-h
- Butanol yield [4]: 0.07 g butanol/g/glucose
- Residual glucose concentration [4]: 47.6 g/L
- Butanol (50 nM, transfer 22, after 96 hours of culture): 5.35 g/L
- Butanol productivity [5]: 0.06 g butanol/L-h
- Butanol yield [5]: 0.09 g butanol/g/glucose
- Residual glucose concentration [5]: 45.9 g/L
- Butanol (50 nM, transfer 24, after 96 hours of culture): 4.70 g/L
- Butanol productivity [6]: 0.05 g butanol/L-h
- Butanol yield [6]: 0.08 g butanol/g/glucose
- Residual glucose concentration [6]: 50.2 g/L
- Butanol concentration [7]: 0.62 g/L
- Butanol productivity [7]: 0.01 g butanol/L-h
- Butanol yield [7]: 0.01 g butanol/g/glucose
- Residual glucose concentration [7]: 55.6 g/L
- Butanol concentration [8]: 1.50 g/L
- Butanol productivity [8]: 0.02 g butanol/L-h
- Butanol yield [8]: 0.03 g butanol/g/glucose
- Residual glucose concentration [8]: 49.3 g/L
- Butanol concentration [9]: 4.10 g/L
- Butanol productivity [9]: 0.04 g butanol/L-h
- Butanol yield [9]: 0.07 g butanol/g/glucose
- Residual glucose concentration [9]: 0.1 g/L
- Butanol concentration [10]: 7.37 g/L
- Butanol productivity [10]: 0.08 g butanol/L-h
- Butanol yield [10]: 0.13 g butanol/g/glucose
- Residual glucose concentration [10]: 0.1 g/L
- Butanol concentration [11]: 5.60 g/L
- Butanol productivity [11]: 0.06 g butanol/L-h
- Butanol yield [11]: 0.10 g butanol/g/glucose
- Residual glucose concentration [11]: 0.1 g/L
- Butanol concentration [12]: 7.51 g/L
- Butanol productivity [12]: 0.08 g butanol/L-h
- Butanol yield [12]: 0.13 g butanol/g/glucose
- Residual glucose concentration [12]: 0.1 g/L
- Butanol concentration [13]: 4.03 g/L
- Butanol productivity [13]: 0.04 g butanol/L-h
- Butanol yield [13]: 0.07 g butanol/g/glucose
- Residual glucose concentration [13]: 0.1 g/L
- Butanol concentration [14]: 5.05 g/L
- Butanol productivity [14]: 0.05 g butanol/L-h
- Butanol yield [14]: 0.09 g butanol/g/glucose
- Residual glucose concentration [14]: 0.1 g/L
- Butanol concentration [15]: 3.42 g/L
- Butanol productivity [15]: 0.04 g butanol/L-h
- Butanol yield [15]: 0.06 g butanol/g/glucose
- Residual glucose concentration [15]: 0.1 g/L
- Butanol (100 nM, transfer 1, after 96 hours of culture): 1.14 g/L
- Butanol productivity [16]: 0.01 g butanol/L-h
- Butanol yield [16]: 0.02 g butanol/g/glucose
- Residual glucose concentration [16]: 48.3 g/L
- Butanol (100 nM, transfer 4, after 96 hours of culture): 6.97 g/L
- Butanol productivity [17]: 0.07 g butanol/L-h
- Butanol yield [17]: 0.12 g butanol/g/glucose
- Residual glucose concentration [17]: 0.1 g/L
- Butanol (100 nM, transfer 7, after 96 hours of culture): 7.33 g/L
- Butanol productivity [18]: 0.08 g butanol/L-h
- Butanol yield [18]: 0.12 g butanol/g/glucose
- Residual glucose concentration [18]: 0.1 g/L
- Butanol (100 nM, transfer 10, after 96 hours of culture): 11.33 g/L
- Butanol productivity [19]: 0.12 g butanol/L-h
- Butanol yield [19]: 0.19 g butanol/g/glucose
- Residual glucose concentration [19]: 0.1 g/L
- Butanol (100 nM, transfer 13, after 96 hours of culture): 7.22 g/L
- Butanol productivity [20]: 0.08 g butanol/L-h
- Butanol yield [20]: 0.12 g butanol/g/glucose
- Residual glucose concentration [20]: 0.1 g/L
- Butanol (100 nM, transfer 16, after 96 hours of culture): 9.59 g/L
- Butanol productivity [21]: 0.10 g butanol/L-h
- Butanol yield [21]: 0.16 g butanol/g/glucose
- Residual glucose concentration [21]: 0.1 g/L
- Butanol (100 nM, transfer 19, after 96 hours of culture): 4.76 g/L
- Butanol productivity [22]: 0.05 g butanol/L-h
- Butanol yield [22]: 0.08 g butanol/g/glucose
- Residual glucose concentration [22]: 0.1 g/L
- Butanol (100 nM, transfer 22, after 96 hours of culture): 6.85 g/L
- Butanol productivity [23]: 0.07 g butanol/L-h
- Butanol yield [23]: 0.11 g butanol/g/glucose
- Residual glucose concentration [23]: 0.1 g/L
- Butanol (100 nM, transfer 24, after 96 hours of culture): 4.67 g/L
- Butanol productivity [24]: 0.05 g butanol/L-h
- Butanol yield [24]: 0.08 g butanol/g/glucose
- Residual glucose concentration [24]: 0.1 g/L
- Transfers over which butanol production was enhanced (BP110517, sequential batch cultures (summary of findings)): transfer 4 through transfer 19
- Butanol yield and productivity greater than untreated control (BP110517 first experiment, 25 nM, transfer 4): 23%
- Butanol yield and productivity greater than untreated control (BP110517 first experiment, 25 nM, transfer 16): 24%
- Decrease of butanol concentration below that of controls [25]: 20%
- Reduction in glucose utilization [25]: 80%
- Butanol yield and productivity greater than untreated control (BP110517 first experiment, 50 nM, transfer 4): 20%
- Butanol productivity [26]: 0.14 g butanol/1-hour
- Butanol yield [26]: 0.23 g butanol/g glucose
- Butanol yield and productivity greater than untreated control [26]: 46%
- Butanol yield and productivity greater than untreated control (BP110517 first experiment, 50 nM, transfer 16): 16%
- Effect on butanol production versus untreated control (BP110517 first experiment, 100 nM, except at transfer 10): generally resulted in decreased butanol production, or no difference from the untreated control
- Glucose consumption (BP110517 first experiment, all treated and untreated cultures, transfer 4 through transfer 16): ~100%
- Increase in butanol over untreated control (SEQ ID NO: 143 first experiment, 25 nM, transfer 4): ~25%
- Increase in butanol over untreated control (SEQ ID NO: 143 first experiment, 25 nM, transfer 4, listed as BP110517): 23%
- Increase in butanol over untreated control (SEQ ID NO: 143 first experiment, 25 nM, transfer 16): 24%
- Increase in butanol over untreated control (SEQ ID NO: 143 first experiment, 50 nM, transfer 4): ~25%
- Increase in butanol over untreated control (SEQ ID NO: 143 first experiment, 50 nM, transfer 4, listed as BP110517): 20%
- Increase in butanol over untreated control (SEQ ID NO: 143 first experiment, 50 nM, transfer 10): 46%
- Increase in butanol over untreated control (SEQ ID NO: 143 first experiment, 50 nM, transfer 16): 16%
- Increase in butanol over untreated control (SEQ ID NO: 143 first experiment, 100 nM, transfer 10): 21%
- Increase in butanol over untreated control (SEQ ID NO: 143 second experiment, 50 nM, transfer 10): more than 200%
- Increase in butanol over untreated control (SEQ ID NO: 143 second experiment, 50 nM, transfer 10, listed as BP110517): 223%
- Increase in butanol over untreated control (SEQ ID NO: 143 second experiment, 50 nM, transfer 13): 289%
- Increase in butanol over untreated control (SEQ ID NO: 143 second experiment, 50 nM, transfer 16): 170%
- Increase in butanol over untreated control (SEQ ID NO: 143 second experiment, 100 nM, transfer 10): more than 200%
- Effect on differentiation and butanol production (sequential and continuous cultures): inducer of differentiation and butanol production

Source: patent US20150031102A1, “METHODS AND COMPOSITIONS FOR ENHANCED PRODUCTION OF BUTANOL BY CLOSTRIDIA” (Butrolix LLC, priority 2012, published 2015)
